Calls of active or inactive are those of the source. The calls are words filed in the database; no cut-off is given here.
Columns and labels:
[1] = biological target: 5-hydroxytryptamine receptor 7 (Homo sapiens, UniProt P34969); assay: Displacement of [3H]]-5-CT from human cloned 5-HT7R expressed in HEK293 cells; type: cell-based
[2] = biological target: T1, 5-hydroxytryptamine receptor 1A (Rattus norvegicus, UniProt P19327); assay: Displacement of [3H]-8-OH-DPAT from 5-HT1AR in rat hippocampus; type: tissue-based
T1 sequence (P19327 whole entry): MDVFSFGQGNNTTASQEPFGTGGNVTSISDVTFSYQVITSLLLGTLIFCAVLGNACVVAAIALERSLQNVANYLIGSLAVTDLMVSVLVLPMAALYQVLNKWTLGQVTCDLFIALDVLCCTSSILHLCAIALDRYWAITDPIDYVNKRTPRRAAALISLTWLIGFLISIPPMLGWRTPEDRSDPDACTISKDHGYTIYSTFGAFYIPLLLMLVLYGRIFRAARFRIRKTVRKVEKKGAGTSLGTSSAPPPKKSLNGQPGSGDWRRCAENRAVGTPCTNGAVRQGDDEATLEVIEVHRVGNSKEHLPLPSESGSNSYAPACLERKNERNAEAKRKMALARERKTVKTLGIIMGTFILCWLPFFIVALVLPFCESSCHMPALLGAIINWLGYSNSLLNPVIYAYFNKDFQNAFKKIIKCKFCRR

[3] = biological target: 5-hydroxytryptamine receptor 2A (Rattus norvegicus, UniProt P14842); assay: Displacement of [3H]-ketanserin from 5-HT2AR in rat cortex
[4] = biological target: 5-hydroxytryptamine receptor 6 (Homo sapiens, UniProt P50406); assay: Displacement of [3H]LSD from human cloned 5-HT6R expressed in HEK293 cells; type: cell-based
Mus musculus [5] = assay: Inhibition of (+/-)-DOI-induced head twitch response in mouse dosed intraperitoneally 60 mins before (+/-)-DOI injection; type: functional
Mus musculus [6] = assay: Anxiolytic-like activity in mouse assessed as increase in number of punished crossings at 0.312 mg/kg, ip dosed 60 mins before test by four plate test; type: functional; conditions: route intraperitoneal
Mus musculus [7] = assay: Anxiolytic-like activity in mouse assessed as increase in number of punished crossings at 0.625 mg/kg, ip dosed 60 mins before test by four plate test; type: functional; conditions: route intraperitoneal
Mus musculus [8] = assay: Effect on spontaneous locomotor activity in mouse at 0.312 mg/kg, ip; type: ADME, organism-based; set-up: dose 0.312 mg/kg, route intraperitoneal; conditions: in vivo
Mus musculus [9] = assay: Effect on spontaneous locomotor activity in mouse at 0.625 mg/kg, ip; type: ADME, organism-based; set-up: dose 0.625 mg/kg, route intraperitoneal; conditions: in vivo
Mus musculus [10] = assay: Anxiolytic-like activity in mouse assessed as increase in number of punished crossings at 0.156 mg/kg, ip dosed 60 mins before test co-administered with 0.625 mg/kg diazepam by four plate test; type: functional, organism-based
Mus musculus [11] = assay: Antidepressant-like activity in mouse assessed as reduction in immobility time at 0.156 to 5 mg/kg, ip dosed 60 mins before test by forced swim test; type: functional, organism-based
D(2) dopamine receptor = D(2) dopamine receptor (Rattus norvegicus, UniProt P61169); assay: Displacement of [3H]-spiperone from dopamine D2 receptor in rat striatum
Mus musculus [12] = assay: Induction of hypothermia in mouse assessed as change in body temperature at 2.5 mg/kg, ip administered 30 mins before test and measured 30 mins post dose; type: functional, organism-based; set-up: dose 2.5 mg/kg
Mus musculus [13] = assay: Induction of hypothermia in mouse assessed as change in body temperature at 5 mg/kg, ip administered 30 mins before test and measured 30 mins post dose; type: functional, organism-based; set-up: dose 5 mg/kg
Mus musculus [14] = assay: Induction of hypothermia in mouse assessed as change in body temperature at 2.5 mg/kg, ip administered 30 mins before test and measured 60 mins post dose; type: functional, organism-based; set-up: dose 2.5 mg/kg
Mus musculus [15] = assay: Induction of hypothermia in mouse assessed as change in body temperature at 5 mg/kg, ip administered 30 mins before test and measured 60 mins post dose; type: functional, organism-based; set-up: dose 5 mg/kg
Mus musculus [16] = assay: Induction of hypothermia in mouse assessed as change in body temperature at 2.5 mg/kg, ip administered 30 mins before test and measured 90 mins post dose; type: functional, organism-based; set-up: dose 2.5 mg/kg
Mus musculus [17] = assay: Induction of hypothermia in mouse assessed as change in body temperature at 5 mg/kg, ip administered 30 mins before test and measured 90 mins post dose; type: functional, organism-based; set-up: dose 5 mg/kg
Mus musculus [18] = assay: Induction of hypothermia in mouse assessed as change in body temperature at 2.5 mg/kg, ip administered 30 mins before test and measured 120 mins post dose; type: functional, organism-based; set-up: dose 2.5 mg/kg
Mus musculus [19] = assay: Induction of hypothermia in mouse assessed as change in body temperature at 5 mg/kg, ip administered 30 mins before test and measured 120 mins post dose; type: functional, organism-based; set-up: dose 5 mg/kg
Mus musculus [20] = assay: Induction of hypothermia in mouse assessed as change in body temperature at 2.5 mg/kg, ip administered 30 mins before test and measured 30 mins post dose in presence of 0.3 mg/kg, sc 5HT1A receptor antagonist WAY 100635; type: functional, organism-based
Mus musculus [21] = assay: Induction of hypothermia in mouse assessed as change in body temperature at 2.5 mg/kg, ip administered 30 mins before test and measured 60 mins post dose in presence of 0.3 mg/kg, sc 5HT1A receptor antagonist WAY 100635; type: functional, organism-based
Rattus norvegicus [22] = assay: Induction of lower lip retraction in rat assessed as lower lip retraction scores at 1 mg/kg, ip dosed 15 mins before test; type: functional; conditions: route intraperitoneal
Rattus norvegicus [23] = assay: Induction of lower lip retraction in rat assessed as lower lip retraction scores at 5 mg/kg, ip dosed 15 mins before test; type: functional; conditions: route intraperitoneal
Rattus norvegicus [24] = assay: Induction of lower lip retraction in rat assessed as lower lip retraction scores at 10 mg/kg, ip dosed 15 mins before test; type: functional; conditions: route intraperitoneal
Rattus norvegicus [25] = assay: Inhibition of 8-OH-DPAT-induced lower lip retraction in rat assessed as lower lip retraction scores at 1 mg/kg, ip dosed 45 mins before 8-OH-DPAT; type: functional; conditions: route intraperitoneal
Rattus norvegicus [26] = assay: Inhibition of 8-OH-DPAT-induced lower lip retraction in rat assessed as lower lip retraction scores at 5 mg/kg, ip dosed 45 mins before 8-OH-DPAT; type: functional; conditions: route intraperitoneal
Rattus norvegicus [27] = assay: Inhibition of 8-OH-DPAT-induced lower lip retraction in rat assessed as lower lip retraction scores at 10 mg/kg, ip dosed 45 mins before 8-OH-DPAT; type: functional; conditions: route intraperitoneal
Mus musculus [28] = assay: Inhibition of (+/-)-DOI-induced head twitch response in mouse assessed as head twitches per 20 mins at 2.5 mg/kg, ip dosed 60 mins before (+/-)-DOI injection (reference value: 21.6 +/- 3.4/20 mins); type: functional; conditions: route intraperitoneal
Mus musculus [29] = assay: Inhibition of (+/-)-DOI-induced head twitch response in mouse assessed as head twitches per 20 mins at 5 mg/kg, ip dosed 60 mins before (+/-)-DOI injection (reference value: 21.6 +/- 3.4/20 mins); type: functional; conditions: route intraperitoneal
Mus musculus [30] = assay: Inhibition of (+/-)-DOI-induced head twitch response in mouse assessed as head twitches per 20 mins at 10 mg/kg, ip dosed 60 mins before (+/-)-DOI injection (reference value: 21.6 +/- 3.4/20 mins); type: functional; conditions: route intraperitoneal
Mus musculus [31] = assay: Inhibition of (+/-)-DOI-induced head twitch response in mouse assessed as head twitches per 20 mins at 0.625 mg/kg, ip dosed 60 mins before (+/-)-DOI injection (reference value: 21.6 +/- 3.4/20 mins); type: functional; conditions: route intraperitoneal
Mus musculus [32] = assay: Inhibition of (+/-)-DOI-induced head twitch response in mouse assessed as head twitches per 20 mins at 1.25 mg/kg, ip dosed 60 mins before (+/-)-DOI injection (reference value: 21.6 +/- 3.4/20 mins); type: functional; conditions: route intraperitoneal

Chain of 5-hydroxytryptamine receptor 7 (P34969 whole entry): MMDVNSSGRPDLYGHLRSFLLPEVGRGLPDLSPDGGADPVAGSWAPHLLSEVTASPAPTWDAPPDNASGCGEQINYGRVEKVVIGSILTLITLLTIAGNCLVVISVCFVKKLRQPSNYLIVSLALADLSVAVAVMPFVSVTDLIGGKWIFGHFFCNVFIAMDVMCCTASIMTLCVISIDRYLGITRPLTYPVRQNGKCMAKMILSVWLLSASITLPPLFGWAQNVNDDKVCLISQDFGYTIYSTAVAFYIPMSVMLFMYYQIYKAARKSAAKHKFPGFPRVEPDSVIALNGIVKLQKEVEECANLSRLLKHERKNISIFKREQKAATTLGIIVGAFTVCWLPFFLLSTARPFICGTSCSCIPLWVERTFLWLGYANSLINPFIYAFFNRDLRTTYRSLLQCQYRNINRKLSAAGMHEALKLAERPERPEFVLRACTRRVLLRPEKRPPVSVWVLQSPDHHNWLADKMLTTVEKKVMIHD
Chain of 5-hydroxytryptamine receptor 6 (P50406 whole entry): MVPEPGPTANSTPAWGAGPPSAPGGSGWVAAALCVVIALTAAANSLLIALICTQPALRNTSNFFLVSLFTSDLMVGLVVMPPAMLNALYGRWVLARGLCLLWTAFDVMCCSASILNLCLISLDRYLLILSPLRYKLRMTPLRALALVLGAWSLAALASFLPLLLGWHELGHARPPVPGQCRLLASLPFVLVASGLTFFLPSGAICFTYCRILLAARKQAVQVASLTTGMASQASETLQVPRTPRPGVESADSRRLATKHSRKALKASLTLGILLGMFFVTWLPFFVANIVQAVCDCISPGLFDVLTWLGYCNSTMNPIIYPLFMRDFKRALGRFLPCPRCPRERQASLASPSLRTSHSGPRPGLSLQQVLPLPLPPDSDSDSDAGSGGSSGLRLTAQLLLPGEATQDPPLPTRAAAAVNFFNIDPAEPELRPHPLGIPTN
Chain of 5-hydroxytryptamine receptor 2A (P14842 whole entry): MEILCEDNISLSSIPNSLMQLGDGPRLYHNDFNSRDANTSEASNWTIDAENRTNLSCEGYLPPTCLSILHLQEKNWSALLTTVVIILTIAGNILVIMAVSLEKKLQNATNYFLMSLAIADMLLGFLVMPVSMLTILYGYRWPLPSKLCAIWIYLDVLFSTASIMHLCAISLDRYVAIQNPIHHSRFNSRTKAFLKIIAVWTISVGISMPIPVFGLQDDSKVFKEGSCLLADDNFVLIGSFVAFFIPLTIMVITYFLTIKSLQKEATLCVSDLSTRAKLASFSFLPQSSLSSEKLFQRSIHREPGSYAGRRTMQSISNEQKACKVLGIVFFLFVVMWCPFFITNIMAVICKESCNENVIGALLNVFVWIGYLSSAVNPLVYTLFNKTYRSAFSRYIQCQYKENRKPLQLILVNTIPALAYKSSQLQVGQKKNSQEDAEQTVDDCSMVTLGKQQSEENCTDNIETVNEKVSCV
Chain of D(2) dopamine receptor (P61169 whole entry): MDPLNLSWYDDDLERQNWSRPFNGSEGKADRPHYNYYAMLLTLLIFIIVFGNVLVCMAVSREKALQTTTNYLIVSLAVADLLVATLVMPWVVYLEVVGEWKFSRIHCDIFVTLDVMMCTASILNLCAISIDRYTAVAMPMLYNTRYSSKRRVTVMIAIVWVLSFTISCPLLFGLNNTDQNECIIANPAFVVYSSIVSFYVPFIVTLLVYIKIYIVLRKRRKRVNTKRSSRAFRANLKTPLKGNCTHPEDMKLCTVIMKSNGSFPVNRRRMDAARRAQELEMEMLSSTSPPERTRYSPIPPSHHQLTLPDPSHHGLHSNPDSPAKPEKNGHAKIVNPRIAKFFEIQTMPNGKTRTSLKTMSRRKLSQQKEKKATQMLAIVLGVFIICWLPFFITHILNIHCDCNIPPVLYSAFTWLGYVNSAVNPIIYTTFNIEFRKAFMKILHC

CCOc1nc2c(c(=O)n(C)c(=O)n2C)n1CCCCN1CCN(c2ccccc2OC)CC1
Ki [1]: 54 nM

Cn1c(=O)c2c(nc(N3CCOCC3)n2CCCCN2CCN(c3cccc(Cl)c3)CC2)n(C)c1=O
Ki [2]: 22 nM | Ki [3]: 21 nM | Ki [4]: 207 nM | Ki [1]: 112 nM

Cl.Cn1c(=O)c2c(ncn2CCCCCN2CCN(c3cccc(Cl)c3)CC2)n(C)c1=O
inhibition (Mus musculus [5]): Dose-dependent effect | ED50 (Mus musculus [5]; ip, read-out: ID50 (the source's name)): 2.54 mg/kg | Activity (Mus musculus [6]): 71% | Activity (Mus musculus [7]): 57% | Activity (Mus musculus [8]): Non-toxic | Activity (Mus musculus [9]): Non-toxic | Activity (Mus musculus [10]): Active | Activity (Mus musculus [11]): inactive | Ki [2]: 5 nM | Ki [3]: 54 nM | Ki [4]: 1200 nM | Ki [1]: 131 nM | Ki (D(2) dopamine receptor): 40 nM | deltaT (Mus musculus [12]): -2.1 °C | deltaT (Mus musculus [13]): -2.2 °C | deltaT (Mus musculus [14]): -1.8 °C | deltaT (Mus musculus [15]): -1.4 °C | deltaT (Mus musculus [16]): -1.5 °C | deltaT (Mus musculus [17]): -1.1 °C | deltaT (Mus musculus [18]): -1.3 °C | deltaT (Mus musculus [19]): 0.3 °C | deltaT (Mus musculus [20]): -1.8 °C | deltaT (Mus musculus [21]): -2 °C | Activity (Rattus norvegicus [22]): 0.2 | Activity (Rattus norvegicus [23]): 0.3 | Activity (Rattus norvegicus [24]): 0.1 | Activity (Rattus norvegicus [25]): 1.8 | Activity (Rattus norvegicus [26]): 1.1 | Activity (Rattus norvegicus [27]): 0.5 | Activity (Mus musculus [28]): 8.2 | Activity (Mus musculus [29]): 5.8 | Activity (Mus musculus [30]): 1.3 | Activity (Mus musculus [31]): 12.8 | Activity (Mus musculus [32]): 10.8

Cn1c(=O)c2c(ncn2CCCCN2CCN(c3ccccc3)CC2)n(C)c1=O
Ki [2]: 23 nM | Ki [3]: 507 nM | Ki [4]: 14200 nM | Ki [1]: 1150 nM | Ki (D(2) dopamine receptor): 1010 nM
